Biological target: Plasma kallikrein (Homo sapiens, UniProt P03952)
Experiment: Inhibition of human plasma kallikrein using fluorogenic substrate measured by microplate reader analysis
Format: cell-free

Chain of Plasma kallikrein (P03952 20-390 limits assumed): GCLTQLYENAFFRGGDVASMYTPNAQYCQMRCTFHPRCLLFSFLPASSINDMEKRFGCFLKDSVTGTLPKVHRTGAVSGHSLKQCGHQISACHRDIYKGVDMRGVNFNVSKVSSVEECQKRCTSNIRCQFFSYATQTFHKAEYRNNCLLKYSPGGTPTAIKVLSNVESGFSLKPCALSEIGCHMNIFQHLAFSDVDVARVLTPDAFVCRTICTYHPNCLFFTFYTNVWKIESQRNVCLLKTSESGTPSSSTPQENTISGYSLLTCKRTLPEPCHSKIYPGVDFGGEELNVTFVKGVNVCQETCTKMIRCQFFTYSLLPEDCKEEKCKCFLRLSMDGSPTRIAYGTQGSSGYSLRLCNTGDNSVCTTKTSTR
Chain of Plasma kallikrein (P03952 391-638 limits assumed): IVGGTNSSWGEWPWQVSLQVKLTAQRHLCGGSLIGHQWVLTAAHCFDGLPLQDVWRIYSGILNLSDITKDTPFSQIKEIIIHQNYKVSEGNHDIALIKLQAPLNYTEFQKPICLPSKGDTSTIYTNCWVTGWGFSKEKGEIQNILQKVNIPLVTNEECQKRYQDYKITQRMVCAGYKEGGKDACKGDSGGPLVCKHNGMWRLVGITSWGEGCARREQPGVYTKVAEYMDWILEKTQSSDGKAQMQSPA

| IC50 | Compound |
| --- | --- |
| 0.3 nM | Cc1c([C@H](C)n2cc(NC(=O)c3cncc(-c4c(C(F)F)ccc(Cl)c4F)n3)cn2)cnc(N2C[C@H]3C[C@H]3C2=O)c1F |
| 0.3 nM | COc1c(N2C[C@H]3C[C@H]3C2=O)ncc(C(C)n2cc(NC(=O)c3cncc(-c4c(C(F)F)ccc(Cl)c4F)n3)cn2)c1C (some centres not stated) |

Reference: ChEMBL document CHEMBL5036381, “Novel Plasma Kallikrein Inhibitors for Treating Hereditary Angioedema, Diabetic Macular Edema, and Diabetic Retinopathy” (ACS Med Chem Lett, 2022)
